# Reference: patent US10633379B2, “Bromodomain inhibitors” (AbbVie Inc., priority 2016, dated 2020)
# Experiments:
# BRD4 (BDI_K57-E168) = BRD4 (BDI_K57-E168) (Homo sapiens (Human), UniProt O60885); experiment: TR-FRET bromodomain binding assay, BRD4 BDI; conditions: mean Ki, calculated from IC50, probe Kd and probe concentration
# Outline: (§1)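 Probe displacement measured by TR-FRET after 1 h at room temperature, in 20 mM sodium phosphate pH 6.0 and 2% DMSO. BDI used 12 nM protein with 100 nM probe, BDII 4 nM with 30 nM probe, each with 1 nM europium antibody. Ki derived from fitted IC50, probe Kd and probe level.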
# BRD4 (BDII_E352-M457) = BRD4 (BDII_E352-M457) (Homo sapiens (Human), UniProt O60885); experiment: TR-FRET bromodomain binding assay, BRD4 BDII; conditions: mean Ki, calculated from IC50, probe Kd and probe concentration
# Outline: as §1
compound,measurement,setting,value
"Cc1cc(S(C)(=O)=O)cc(C)c1Oc1ncc(C(C)(C)O)cc1-c1cn(C)c(=O)c2[nH]c(C(=O)NC(C)(C)C)cc12 [Example 92, N-tert-butyl-4-{5-(2-hydroxypropan-2-yl)-2-[4-(methanesulfonyl)-2,6-dimethylphenoxy]pyridin-3-yl}-6-methyl-7-oxo-6,7-dihydro-1H-pyrrolo[2,3-c]pyridine-2-carboxamide]",Ki,BRD4 (BDI_K57-E168),410 nM
same,Ki,BRD4 (BDII_E352-M457),12.1 nM
"CCNC(=O)c1cc2c(-c3cc(C(C)(C)O)cnc3Oc3c(C)cc(S(C)(=O)=O)cc3C)cn(C)c(=O)c2[nH]1 [Example 93, N-ethyl-4-{5-(2-hydroxypropan-2-yl)-2-[4-(methanesulfonyl)-2,6-dimethylphenoxy]pyridin-3-yl}-6-methyl-7-oxo-6,7-dihydro-1H-pyrrolo[2,3-c]pyridine-2-carboxamide]",Ki,BRD4 (BDI_K57-E168),502 nM
same,Ki,BRD4 (BDII_E352-M457),10.9 nM
"CCNC(=O)c1cc2c(-c3cc(C(C)(C)O)cnc3Oc3c(C)cc(Cl)cc3C)cn(C)c(=O)c2[nH]1 [Example 94, 4-[2-(4-chloro-2,6-dimethylphenoxy)-5-(2-hydroxypropan-2-yl)pyridin-3-yl]-N-ethyl-6-methyl-7-oxo-6,7-dihydro-1H-pyrrolo[2,3-c]pyridine-2-carboxamide]",Ki,BRD4 (BDI_K57-E168),236 nM
same,Ki,BRD4 (BDII_E352-M457),3.7 nM
"Cc1cc(Cl)cc(C)c1Oc1ncc(C(C)(C)O)cc1-c1cn(C)c(=O)c2[nH]c(C(=O)NC(C)(C)C)cc12 [Example 95, N-tert-butyl-4-[2-(4-chloro-2,6-dimethylphenoxy)-5-(2-hydroxypropan-2-yl)pyridin-3-yl]-6-methyl-7-oxo-6,7-dihydro-1H-pyrrolo[2,3-c]pyridine-2-carboxamide]",Ki,BRD4 (BDI_K57-E168),333 nM
same,Ki,BRD4 (BDII_E352-M457),4.8 nM
"CCNC(=O)c1cc2c(-c3nc(C(C)(C)O)ccc3Oc3c(C)cc(F)cc3C)cn(C)c(=O)c2[nH]1 [Example 96, N-ethyl-4-[3-(4-fluoro-2,6-dimethylphenoxy)-6-(2-hydroxypropan-2-yl)pyridin-2-yl]-6-methyl-7-oxo-6,7-dihydro-1H-pyrrolo[2,3-c]pyridine-2-carboxamide]",Ki,BRD4 (BDI_K57-E168),801 nM
same,Ki,BRD4 (BDII_E352-M457),9.1 nM
"Cc1cc(F)cc(C)c1Oc1ccc(C(C)(C)O)nc1-c1cn(C)c(=O)c2[nH]c(C(=O)NC(C)(C)C)cc12 [Example 97, N-tert-butyl-4-[3-(4-fluoro-2,6-dimethylphenoxy)-6-(2-hydroxypropan-2-yl)pyridin-2-yl]-6-methyl-7-oxo-6,7-dihydro-1H-pyrrolo[2,3-c]pyridine-2-carboxamide]",Ki,BRD4 (BDI_K57-E168),657 nM
same,Ki,BRD4 (BDII_E352-M457),24.7 nM
"CCNC(=O)c1cc2c(-c3cc(C(C)(C)O)ccc3Oc3c(C)cc(F)cc3C(F)F)cn(C)c(=O)c2[nH]1 [Example 98, 4-{2-[2-(difluoromethyl)-4-fluoro-6-methylphenoxy]-5-(2-hydroxypropan-2-yl)phenyl}-N-ethyl-6-methyl-7-oxo-6,7-dihydro-1H-pyrrolo[2,3-c]pyridine-2-carboxamide]",Ki,BRD4 (BDI_K57-E168),682 nM
same,Ki,BRD4 (BDII_E352-M457),9.6 nM
"CCNC(=O)c1cc2c(-c3cc(C(C)(C)O)ccc3Oc3c(C)ccc(Cl)c3C)cn(C)c(=O)c2[nH]1 [Example 99, 4-[2-(3-chloro-2,6-dimethylphenoxy)-5-(2-hydroxypropan-2-yl)phenyl]-N-ethyl-6-methyl-7-oxo-6,7-dihydro-1H-pyrrolo[2,3-c]pyridine-2-carboxamide]",Ki,BRD4 (BDI_K57-E168),431 nM
same,Ki,BRD4 (BDII_E352-M457),1.8 nM
"Cn1cc(-c2cc(C(C)(C)O)cnc2Oc2c(Cl)cc(F)cc2Cl)c2cc(C(=O)NC(C)(C)C)[nH]c2c1=O [Example 100, N-tert-butyl-4-[2-(2,6-dichloro-4-fluorophenoxy)-5-(2-hydroxypropan-2-yl)pyridin-3-yl]-6-methyl-7-oxo-6,7-dihydro-1H-pyrrolo[2,3-c]pyridine-2-carboxamide]",Ki,BRD4 (BDI_K57-E168),115 nM
same,Ki,BRD4 (BDII_E352-M457),5.6 nM
"CCNC(=O)c1cc2c(-c3cc(C(C)(C)O)cnc3Oc3c(Cl)cc(F)cc3Cl)cn(C)c(=O)c2[nH]1 [Example 101, 4-[2-(2,6-dichloro-4-fluorophenoxy)-5-(2-hydroxypropan-2-yl)pyridin-3-yl]-N-ethyl-6-methyl-7-oxo-6,7-dihydro-1H-pyrrolo[2,3-c]pyridine-2-carboxamide]",Ki,BRD4 (BDI_K57-E168),110 nM
same,Ki,BRD4 (BDII_E352-M457),2.5 nM
"CCNC(=O)c1cc2c(-c3cc(C(C)(O)CF)cnc3Oc3c(C)cc(Cl)cc3C)cn(C)c(=O)c2[nH]1 (stereo not drawn) [Example 102, 4-[2-(4-chloro-2,6-dimethylphenoxy)-5-(1-fluoro-2-hydroxypropan-2-yl)pyridin-3-yl]-N-ethyl-6-methyl-7-oxo-6,7-dihydro-1H-pyrrolo[2,3-c]pyridine-2-carboxamide]",Ki,BRD4 (BDI_K57-E168),309 nM
same,Ki,BRD4 (BDII_E352-M457),2.5 nM
"Cc1cc(Cl)cc(C)c1Oc1ncc(C(C)(O)CF)cc1-c1cn(C)c(=O)c2[nH]c(C(=O)NC(C)(C)C)cc12 (stereo not drawn) [Example 103, N-tert-butyl-4-[2-(4-chloro-2,6-dimethylphenoxy)-5-(1-fluoro-2-hydroxypropan-2-yl)pyridin-3-yl]-6-methyl-7-oxo-6,7-dihydro-1H-pyrrolo[2,3-c]pyridine-2-carboxamide]",Ki,BRD4 (BDI_K57-E168),450 nM
same,Ki,BRD4 (BDII_E352-M457),3.3 nM
"CCNC(=O)c1cc2c(-c3cc(C(C)(C)O)ccc3Oc3c(C)ccc(F)c3C)cn(C)c(=O)c2[nH]1 [Example 104, N-ethyl-4-[2-(3-fluoro-2,6-dimethylphenoxy)-5-(2-hydroxypropan-2-yl)phenyl]-6-methyl-7-oxo-6,7-dihydro-1H-pyrrolo[2,3-c]pyridine-2-carboxamide]",Ki,BRD4 (BDI_K57-E168),375 nM
same,Ki,BRD4 (BDII_E352-M457),1.2 nM
"CCNC(=O)c1cc2c(-c3cc(C(C)(O)CC(C)C)ccc3Oc3c(C)cccc3C)cn(C)c(=O)c2[nH]1 (stereo not drawn) [Example 105, 4-[2-(2,6-dimethylphenoxy)-5-(2-hydroxy-4-methylpentan-2-yl)phenyl]-N-ethyl-6-methyl-7-oxo-6,7-dihydro-1H-pyrrolo[2,3-c]pyridine-2-carboxamide]",Ki,BRD4 (BDI_K57-E168),1340 nM
same,Ki,BRD4 (BDII_E352-M457),2.5 nM
"CCNC(=O)c1cc2c(-c3cc(C(C)(C)O)ccc3Oc3c(C)cc(C(C)(C)O)cc3C)cn(C)c(=O)c2[nH]1 [Example 107, N-ethyl-4-{5-(2-hydroxypropan-2-yl)-2-[4-(2-hydroxypropan-2-yl)-2,6-dimethylphenoxy]phenyl}-6-methyl-7-oxo-6,7-dihydro-1H-pyrrolo[2,3-c]pyridine-2-carboxamide]",Ki,BRD4 (BDI_K57-E168),231 nM
same,Ki,BRD4 (BDII_E352-M457),0.8 nM
"Cc1cc(C(C)(C)O)cc(C)c1Oc1ccc(C(C)(C)O)cc1-c1cn(C)c(=O)c2[nH]c(C(=O)NC(C)(C)C)cc12 [Example 108, N-tert-butyl-4-{5-(2-hydroxypropan-2-yl)-2-[4-(2-hydroxypropan-2-yl)-2,6-dimethylphenoxy]phenyl}-6-methyl-7-oxo-6,7-dihydro-1H-pyrrolo[2,3-c]pyridine-2-carboxamide]",Ki,BRD4 (BDI_K57-E168),175 nM
same,Ki,BRD4 (BDII_E352-M457),1.6 nM
"CCNC(=O)c1cc2c(-c3cc(C(C)(C)O)cnc3Oc3c(C)ccc(Cl)c3C)cn(C)c(=O)c2[nH]1 [Example 109, 4-[2-(3-chloro-2,6-dimethylphenoxy)-5-(2-hydroxypropan-2-yl)pyridin-3-yl]-N-ethyl-6-methyl-7-oxo-6,7-dihydro-1H-pyrrolo[2,3-c]pyridine-2-carboxamide]",Ki,BRD4 (BDI_K57-E168),169 nM
same,Ki,BRD4 (BDII_E352-M457),1.1 nM
"CCNC(=O)c1cc2c(-c3cc(C(C)(C)O)ccc3-c3ccc(OC(F)(F)F)cc3)cn(C)c(=O)c2[nH]1 [Example 110, N-ethyl-4-[4-(2-hydroxypropan-2-yl)-4′-(trifluoromethoxy) [1,1′-biphenyl]-2-yl]-6-methyl-7-oxo-6,7-dihydro-1H-pyrrolo[2,3-c]pyridine-2-carboxamide]",Ki,BRD4 (BDI_K57-E168),224 nM
same,Ki,BRD4 (BDII_E352-M457),2 nM
"CCNC(=O)c1cc2c(-c3cc(C(C)(C)O)ccc3C3=CCC(F)(F)CC3)cn(C)c(=O)c2[nH]1 [Example 111, 4-[4′,4′-difluoro-4-(2-hydroxypropan-2-yl)[2′,3′,4′,5′-tetrahydro[1,1′-biphenyl]]-2-yl]-N-ethyl-6-methyl-7-oxo-6,7-dihydro-1H-pyrrolo[2,3-c]pyridine-2-carboxamide]",Ki,BRD4 (BDI_K57-E168),150 nM
same,Ki,BRD4 (BDII_E352-M457),1.4 nM
"Cc1cc(F)cc(C)c1Oc1ccc(C(C)(C)O)cc1-c1cn(C)c(=O)c2[nH]c(C(N)=O)cc12 [Example 112, 4-[2-(4-fluoro-2,6-dimethylphenoxy)-5-(2-hydroxypropan-2-yl)phenyl]-6-methyl-7-oxo-6,7-dihydro-1H-pyrrolo[2,3-c]pyridine-2-carboxamide]",Ki,BRD4 (BDI_K57-E168),332 nM
same,Ki,BRD4 (BDII_E352-M457),2.3 nM
"CCNC(=O)c1cc2c(-c3cc(C(C)(C)O)ccc3C3=CCC(C)CC3)cn(C)c(=O)c2[nH]1 (stereo not drawn) [Example 113, N-ethyl-4-[4-(2-hydroxypropan-2-yl)-4′-methyl[2′,3′,4′,5′-tetrahydro[1,1′-biphenyl]]-2-yl]-6-methyl-7-oxo-6,7-dihydro-1H-pyrrolo[2,3-c]pyridine-2-carboxamide]",Ki,BRD4 (BDI_K57-E168),98 nM
same,Ki,BRD4 (BDII_E352-M457),1.5 nM
"CCNC(=O)c1cc2c(-c3cc(C(C)(C)O)ccc3C3=CCCC3)cn(C)c(=O)c2[nH]1 [Example 114, 4-[2-(cyclopent-1-en-1-yl)-5-(2-hydroxypropan-2-yl)phenyl]-N-ethyl-6-methyl-7-oxo-6,7-dihydro-1H-pyrrolo[2,3-c]pyridine-2-carboxamide]",Ki,BRD4 (BDI_K57-E168),96 nM
same,Ki,BRD4 (BDII_E352-M457),1.3 nM
"CCNC(=O)c1cc2c(-c3cc(C(C)(O)CO)ccc3Oc3c(C)cccc3Cl)cn(C)c(=O)c2[nH]1 (stereo not drawn) [Example 115, 4-[2-(2-chloro-6-methylphenoxy)-5-(1,2-dihydroxypropan-2-yl)phenyl]-N-ethyl-6-methyl-7-oxo-6,7-dihydro-1H-pyrrolo[2,3-c]pyridine-2-carboxamide]",Ki,BRD4 (BDI_K57-E168),323 nM
same,Ki,BRD4 (BDII_E352-M457),1.4 nM
"Cc1cccc(Cl)c1Oc1ccc(C(C)(O)CO)cc1-c1cn(C)c(=O)c2[nH]c(C(=O)NC(C)(C)C)cc12 (stereo not drawn) [Example 116, N-tert-butyl-4-[2-(2-chloro-6-methylphenoxy)-5-(1,2-dihydroxypropan-2-yl)phenyl]-6-methyl-7-oxo-6,7-dihydro-1H-pyrrolo[2,3-c]pyridine-2-carboxamide]",Ki,BRD4 (BDI_K57-E168),756 nM
same,Ki,BRD4 (BDII_E352-M457),2.9 nM
